Measurements reported in ChEMBL document CHEMBL5528029, “Design, synthesis, and biological evaluation of novel discoidin domain receptor inhibitors for the treatment of lung adenocarcinoma and pulmonary fibrosis” (Eur J Med Chem, 2024).

Key:
[1] = molecular target: T1, Discoidin domain-containing receptor 2 (Homo sapiens) (UniProt Q16832); test: Inhibition of DDR2 (unknown origin) assessed as remaining activity at 1 uM using fluorescein-poly GAT as substrate in presence of ATP by TR-FRET assay relative to control
T1 sequence (whole entry): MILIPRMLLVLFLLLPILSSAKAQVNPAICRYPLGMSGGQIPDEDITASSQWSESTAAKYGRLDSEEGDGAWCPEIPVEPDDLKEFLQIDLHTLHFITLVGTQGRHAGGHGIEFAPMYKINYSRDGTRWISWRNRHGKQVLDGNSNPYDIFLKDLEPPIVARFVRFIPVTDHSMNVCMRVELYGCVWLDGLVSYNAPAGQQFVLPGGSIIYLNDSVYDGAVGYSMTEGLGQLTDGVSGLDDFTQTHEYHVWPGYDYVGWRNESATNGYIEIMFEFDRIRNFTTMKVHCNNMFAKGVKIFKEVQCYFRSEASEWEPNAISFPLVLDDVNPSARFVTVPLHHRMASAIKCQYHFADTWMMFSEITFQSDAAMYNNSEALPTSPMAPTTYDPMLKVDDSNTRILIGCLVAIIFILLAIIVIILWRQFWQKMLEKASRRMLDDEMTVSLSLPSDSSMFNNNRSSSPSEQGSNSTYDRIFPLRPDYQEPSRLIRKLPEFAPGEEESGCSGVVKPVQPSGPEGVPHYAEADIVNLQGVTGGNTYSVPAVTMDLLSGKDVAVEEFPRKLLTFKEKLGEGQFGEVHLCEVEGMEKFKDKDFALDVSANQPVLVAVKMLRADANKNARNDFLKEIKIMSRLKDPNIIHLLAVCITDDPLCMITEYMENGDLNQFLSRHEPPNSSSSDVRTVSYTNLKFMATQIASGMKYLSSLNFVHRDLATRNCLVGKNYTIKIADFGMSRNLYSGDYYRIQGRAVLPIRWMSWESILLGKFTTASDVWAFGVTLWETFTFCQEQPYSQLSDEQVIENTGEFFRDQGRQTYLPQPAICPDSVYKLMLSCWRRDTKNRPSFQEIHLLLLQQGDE

[2] = molecular target: High affinity nerve growth factor receptor (Homo sapiens) (UniProt P04629); test: Inhibition of TRK-A (unknown origin) assessed as remaining activity at 1 uM using fluorescein-poly GAT as substrate in presence of ATP by TR-FRET assay relative to control
[3] = molecular target: BDNF/NT-3 growth factors receptor (Homo sapiens) (UniProt Q16620); test: Inhibition of TRK-B (unknown origin) assessed as remaining activity at 1 uM using fluorescein-poly GAT as substrate in presence of ATP by TR-FRET assay relative to control
[4] = molecular target: NT-3 growth factor receptor (Homo sapiens) (UniProt Q16288); test: Inhibition of TRK-C (unknown origin) assessed as remaining activity at 1 uM using fluorescein-poly GAT as substrate in presence of ATP by TR-FRET assay relative to control
[5] = molecular target: T2, Discoidin domain-containing receptor 2 (Homo sapiens, UniProt Q16832); test: Inhibition of DDR2 (unknown origin)
T2 sequence (Q16832 whole entry): T1 sequence (whole entry)

A549 = test: Antiproliferative activity against human A549 cells incubated for 72 hrs by MTT assay; conditions: A549, 72 h
[6] = Antiproliferative activity against human SPCA1 cells incubated for 72 hrs by MTT assay; conditions: SPCA1, 72 h
NCI-H1975 = test: Antiproliferative activity against human NCI-H1975 cells incubated for 72 hrs by MTT assay; conditions: NCI-H1975, 72 h

BDNF/NT-3 growth factors receptor (Homo sapiens), sequence (Q16620 32-822 limits assumed): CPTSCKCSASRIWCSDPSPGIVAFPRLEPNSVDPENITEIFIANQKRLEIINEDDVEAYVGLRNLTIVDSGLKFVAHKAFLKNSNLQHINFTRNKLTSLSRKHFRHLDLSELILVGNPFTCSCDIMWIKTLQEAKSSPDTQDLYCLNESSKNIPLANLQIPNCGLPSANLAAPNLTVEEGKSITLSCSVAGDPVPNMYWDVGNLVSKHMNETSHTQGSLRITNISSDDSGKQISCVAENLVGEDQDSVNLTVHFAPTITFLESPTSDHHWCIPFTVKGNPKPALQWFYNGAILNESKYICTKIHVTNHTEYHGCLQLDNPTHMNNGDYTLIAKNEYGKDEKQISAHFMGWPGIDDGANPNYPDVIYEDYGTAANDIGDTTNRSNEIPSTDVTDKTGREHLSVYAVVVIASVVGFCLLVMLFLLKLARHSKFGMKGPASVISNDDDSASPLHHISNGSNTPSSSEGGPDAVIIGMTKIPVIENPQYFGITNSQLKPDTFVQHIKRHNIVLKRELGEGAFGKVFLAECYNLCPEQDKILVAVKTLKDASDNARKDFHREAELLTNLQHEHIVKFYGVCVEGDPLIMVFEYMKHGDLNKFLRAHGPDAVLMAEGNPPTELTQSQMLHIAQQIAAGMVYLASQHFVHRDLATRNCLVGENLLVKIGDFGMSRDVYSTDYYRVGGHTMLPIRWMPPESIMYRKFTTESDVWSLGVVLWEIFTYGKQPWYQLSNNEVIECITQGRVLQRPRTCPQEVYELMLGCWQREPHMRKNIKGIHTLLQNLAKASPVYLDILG
High affinity nerve growth factor receptor (Homo sapiens), sequence (P04629 33-796 limits assumed): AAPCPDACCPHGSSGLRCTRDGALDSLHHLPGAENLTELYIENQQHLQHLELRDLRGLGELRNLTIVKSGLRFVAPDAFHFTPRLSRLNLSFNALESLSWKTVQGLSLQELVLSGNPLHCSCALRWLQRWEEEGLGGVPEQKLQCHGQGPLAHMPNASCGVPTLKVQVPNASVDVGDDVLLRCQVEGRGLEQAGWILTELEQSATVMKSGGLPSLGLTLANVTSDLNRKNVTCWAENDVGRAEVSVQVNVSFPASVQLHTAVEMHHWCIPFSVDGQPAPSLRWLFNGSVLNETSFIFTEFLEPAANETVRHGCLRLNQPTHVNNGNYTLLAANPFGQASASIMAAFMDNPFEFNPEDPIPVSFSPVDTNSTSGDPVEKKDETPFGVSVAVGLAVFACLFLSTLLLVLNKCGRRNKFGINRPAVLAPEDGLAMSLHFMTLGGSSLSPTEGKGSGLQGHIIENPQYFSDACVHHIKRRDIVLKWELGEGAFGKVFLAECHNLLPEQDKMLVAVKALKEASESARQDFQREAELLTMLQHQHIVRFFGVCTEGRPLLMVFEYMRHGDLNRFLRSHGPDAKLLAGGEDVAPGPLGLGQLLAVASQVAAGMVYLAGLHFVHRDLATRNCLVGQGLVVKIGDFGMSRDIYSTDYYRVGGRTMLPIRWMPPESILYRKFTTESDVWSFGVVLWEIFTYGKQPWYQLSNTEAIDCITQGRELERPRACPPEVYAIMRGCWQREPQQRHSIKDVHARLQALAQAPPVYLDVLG
NT-3 growth factor receptor (Homo sapiens), sequence (Q16288 32-839 limits assumed): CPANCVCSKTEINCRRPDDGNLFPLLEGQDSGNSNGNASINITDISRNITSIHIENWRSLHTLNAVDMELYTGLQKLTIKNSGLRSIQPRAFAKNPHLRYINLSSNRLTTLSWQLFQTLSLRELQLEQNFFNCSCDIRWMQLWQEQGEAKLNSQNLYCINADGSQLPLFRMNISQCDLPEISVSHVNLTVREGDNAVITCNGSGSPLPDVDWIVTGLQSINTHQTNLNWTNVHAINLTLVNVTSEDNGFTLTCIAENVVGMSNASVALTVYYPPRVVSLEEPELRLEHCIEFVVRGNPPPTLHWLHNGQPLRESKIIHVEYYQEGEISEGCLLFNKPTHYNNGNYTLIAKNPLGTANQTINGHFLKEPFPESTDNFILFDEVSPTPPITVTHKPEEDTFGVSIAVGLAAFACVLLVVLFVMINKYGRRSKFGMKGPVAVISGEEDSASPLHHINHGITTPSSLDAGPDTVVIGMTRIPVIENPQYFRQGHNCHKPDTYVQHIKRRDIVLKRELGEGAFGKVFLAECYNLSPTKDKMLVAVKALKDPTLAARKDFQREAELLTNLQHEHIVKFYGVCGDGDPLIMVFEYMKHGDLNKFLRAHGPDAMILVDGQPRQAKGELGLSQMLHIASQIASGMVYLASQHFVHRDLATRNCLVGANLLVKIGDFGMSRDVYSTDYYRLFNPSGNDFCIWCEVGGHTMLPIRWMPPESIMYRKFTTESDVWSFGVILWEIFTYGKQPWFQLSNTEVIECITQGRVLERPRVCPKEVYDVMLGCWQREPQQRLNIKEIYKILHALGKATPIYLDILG

SMILES	Activity [1]	Activity [2]	Activity [3]	Activity [4]	IC50 [5]	IC50 (A549)	IC50 (NCI-H1975)	IC50 [6]
COc1ccc2c(c1)c(CNC(=O)Nc1ccc(C)cc1)cn2CC(=O)N1CCCCC1	83.2%	82.3%	85.7%	92.5%				
O=C(NCc1cn(CC(=O)N2CCCCC2)c2ccc(F)cc12)Nc1ccc(F)cc1F	41.3%	88.2%	106%	83.5%	1.19 µM	1.67 µM	3.86 µM	1.73 µM
COc1ccc2c(c1)c(CNC(=O)Nc1ccccc1Cl)cn2CC(=O)N1CCN(C)CC1	55.9%	94%	93.4%	82.9%				
COc1ccc2c(c1)c(CNC(=O)Nc1ccc(C)cc1)cn2CC(=O)N1CCOCC1	89.6%	81.3%	84%	87.5%				
COc1ccc2c(c1)c(CNC(=O)Nc1ccc(F)cc1F)cn2CC(=O)N1CCN(C)CC1	66.5%	93.1%	88.9%	68.8%				
COc1ccc2c(c1)c(CNC(=O)Nc1ccc(C)cc1)cn2CC(=O)N1CCN(C)CC1	96.2%	98.7%	108%	90.9%				
COc1ccc2c(c1)c(CNC(=O)Nc1ccc(F)cc1F)cn2CC(=O)N1CCCCC1	74.8%	84.7%	70.8%	68.6%				
COc1ccc(NC(=O)NCc2cn(CC(=O)N3CCOCC3)c3ccc(OC)cc23)cc1	95.3%	98.9%	92.5%	89%				
COc1ccc2c(c1)c(CNC(=O)Nc1ccccc1Cl)cn2CC(=O)N1CCOCC1	54.7%	91.7%	97.2%	86%				
O=C(NCc1cn(CC(=O)N2CCCCC2)c2ccc(F)cc12)Nc1ccc(C(F)(F)F)cc1	70.1%	87%	108%	105%				
Cc1ccc(NC(=O)NCc2cn(CC(=O)N3CCCCC3)c3ccc(F)cc23)cc1	92.5%	99.7%	97%	99.7%				
O=C(NCc1cn(CC(=O)N2CCOCC2)c2ccc(F)cc12)Nc1ccc(C(F)(F)F)cc1	90.2%	77.5%	72.2%	98.3%				
O=C(NCc1cn(CC(=O)N2CCCC2)c2ccc(F)cc12)Nc1ccccc1Cl	73.8%	78%	81.5%	68.6%				
O=C(NCc1cn(CC(=O)N2CCOCC2)c2ccc(F)cc12)Nc1ccc(F)cc1F	53.5%	93.8%	72.8%	82.7%	0.45 µM	3.72 µM	1.98 µM	2.82 µM
CN1CCN(C(=O)Cn2cc(CNC(=O)Nc3ccc(C(F)(F)F)cc3)c3cc(F)ccc32)CC1	74.2%	81.5%	105%	93.7%				
Cc1ccc(NC(=O)NCc2cn(CC(=O)N3CCOCC3)c3ccc(F)cc23)cc1	72.4%	114%	83.8%	111%				
COc1ccc2c(c1)c(CNC(=O)Nc1ccc(C)cc1)cn2CC(=O)N1CCCC1	84.8%	75.2%	87.9%	77.5%				
COc1ccc(NC(=O)NCc2cn(CC(=O)N3CCN(C)CC3)c3ccc(F)cc23)cc1	73.5%	80%	104%	106%				
COc1ccc(NC(=O)NCc2cn(CC(=O)N3CCCC3)c3ccc(OC)cc23)cc1	91.5%	113%	102%	88.1%				
COc1ccc2c(c1)c(CNC(=O)Nc1ccc(C(F)(F)F)cc1)cn2CC(=O)N1CCCC1	99.5%	90.4%	72.2%	89.7%				

More lines, main results first:

Activity [1]	Activity [2]	Activity [3]	Activity [4]	IC50 [5]	IC50 (A549)	IC50 (NCI-H1975)	SMILES	IC50 [6]
73.5%	81.8%	89.6%	90.2%				CN1CCN(C(=O)Cn2cc(CNC(=O)Nc3ccccc3Cl)c3cc(F)ccc32)CC1	
93.4%	108%	108%	94.5%				COc1ccc(NC(=O)NCc2cn(CC(=O)N3CCN(C)CC3)c3ccc(OC)cc23)cc1	
67.8%	95.7%	99.3%	69.6%				COc1ccc2c(c1)c(CNC(=O)Nc1ccccc1Cl)cn2CC(=O)N1CCCC1	
86.3%	71.6%	83.8%	110%				COc1ccc(NC(=O)NCc2cn(CC(=O)N3CCCC3)c3ccc(F)cc23)cc1	
81.1%	101%	101%	94.3%				O=C(NCc1cn(CC(=O)N2CCCC2)c2ccc(F)cc12)Nc1ccc(C(F)(F)F)cc1	
64.3%	74.8%	87.4%	68.9%				COc1ccc2c(c1)c(CNC(=O)Nc1ccccc1Cl)cn2CC(=O)N1CCCCC1	
54.5%	78%	83.8%	87.4%				O=C(NCc1cn(CC(=O)N2CCOCC2)c2ccc(F)cc12)Nc1ccccc1Cl	
79.4%	90.8%	107%	82.7%				COc1ccc(NC(=O)NCc2cn(CC(=O)N3CCOCC3)c3ccc(F)cc23)cc1	
50.8%	74%	104%	76.2%	1.33 µM	6.96 µM	3.72 µM	COc1ccc2c(c1)c(CNC(=O)Nc1ccc(F)cc1F)cn2CC(=O)N1CCCC1	7.35 µM
82.2%	71.8%	79%	103%				COc1ccc2c(c1)c(CNC(=O)Nc1ccc(C(F)(F)F)cc1)cn2CC(=O)N1CCOCC1	
73.8%	91.6%	74.9%	105%				COc1ccc2c(c1)c(CNC(=O)Nc1ccc(C(F)(F)F)cc1)cn2CC(=O)N1CCCCC1	
48%	90.3%	75.7%	84.2%				O=C(NCc1cn(CC(=O)N2CCCCC2)c2ccc(F)cc12)Nc1ccccc1Cl	
74.7%	77.8%	73.1%	60.5%				COc1ccc2c(c1)c(CNC(=O)Nc1ccc(F)cc1F)cn2CC(=O)N1CCOCC1	
102%	96%	104%	106%				COc1ccc2c(c1)c(CNC(=O)Nc1ccc(C(F)(F)F)cc1)cn2CC(=O)N1CCN(C)CC1	
32.5%	95.7%	69.5%	75.2%	1.67 µM	11.2 µM	5.34 µM	O=C(NCc1cn(CC(=O)N2CCCC2)c2ccc(F)cc12)Nc1ccc(F)cc1F	10.5 µM
80.6%	92.7%	80.1%	101%				COc1ccc(NC(=O)NCc2cn(CC(=O)N3CCCCC3)c3ccc(F)cc23)cc1	
95.4%	101%	99.5%	91.2%				Cc1ccc(NC(=O)NCc2cn(CC(=O)N3CCCC3)c3ccc(F)cc23)cc1	
72.4%	92.1%	87.4%	92.7%				COc1ccc(NC(=O)NCc2cn(CC(=O)N3CCCCC3)c3ccc(OC)cc23)cc1	
78.2%	91.7%	90.4%	104%				Cc1ccc(NC(=O)NCc2cn(CC(=O)N3CCN(C)CC3)c3ccc(F)cc23)cc1	
